# Assay results reported in patent publication US20240293352A1 (priority 2021, published 2024).
# System: oncolytic RNA viruses including vesicular stomatitis virus (VSV) and measles
# Details: cited from earlier work
row,Compound,Replication and spread of oncolytic RNA viruses (in words)
1,[O]=[V]([O-])([O-])[O-] [orthovanadate],improve the replication and spread of oncolytic RNA viruses
2,"Cc1occc(=O)c1[O-].Cc1occc(=O)c1[O-].[O]=[V+2] [BMOV, bismaltolatoxovanadate]",improve the replication and spread of oncolytic RNA viruses

# System: VSVD51-GFP in 786-0 cells
# Type: cell-based, human
# Details: not given
Compound,Approximate Peak Viral Sensitizer Dose [µM],Viral sensitization activity / VSVD51 spread (in words)
"[O]=[V]([O-])([O-])[O-] [Vanadate, vanadate, reference compound]",200,increase in GFP foci
vanadium (IV) citrate [CDOS139],,exhibited viral sensitization activity
vanadium (V) citrate [CDOS140],30,exhibited viral sensitization activity
vanadium (V) citrate peroxo [CDOS141],50,exhibited viral sensitization activity
